# From patent publication US20050053625A1, “Method of treating viral infections” (priority 2001, published 2005)
# Key:
# [1] = tested on: HBV; test: Secretion of HBV viral particles from Hep G2.2.15 cells (Proteinase K/DNase method); format: cell-based, Hepatitis B virus; settings: 4.5 mM, 7 days, Hep G2 2.2.15 cells, FIG. 3
# Procedure: Virus secretion into the media was detected by a method that would differentiate between enveloped and un-enveloped DNA. Glucosidase inhibitors reduce the secretion of enveloped virus. Enveloped virus is resistant to Proteinase K/Dnase treatment; un-enveloped virus is not. (+) or (−) indicates the addition of DNase. See text for more details. From left to right: Untreated; 3TC (3.5 μM); […] (4.5 mM).
# Inhibition of the ER a-glucosidases inhibits the secretion of enveloped HBV. The first glycan processing events are the removal of the terminal glucose residues in the ER by α-glucosidase I and II (FIG. 2). The α-glucosidase inhibitor N-butyldeoxynojirimycin (NB-DNJ) has been used to study the role of glucose processing in several proteins including human immunodeficiency virus (HIV-1) gp120 (Fisher et al., 1995) and the enzyme tyrosinase which is involved in melanin biosynthesis (Petrescu et al., 1996). […] Hep G2 2.2.15 cells were either left untreated or treated with 3TC (3.5 μM) or the glucosidase inhibitor NB-DNJ (4.5 mM) and 7 days latter the amount of enveloped virus detected in the culture medium by a method that would differentiate between enveloped and un-enveloped virus (Wei et al., 1997). This method realizes upon the resistance of enveloped HBV to limited Proteinse K treatment (Wei et al., 1997). […]
# [2] = tested on: WHV; settings: cited from earlier work
# [3] = tested on: bovine viral diarrhea virus (BVDV); settings: comparison of N-butyl and N-nonyl DNJ; U.S. Pat. No. 6,465,487; cited from earlier work
# [4] = tested on: glucosidase; test: Glucosidase / glycan processing inhibition in cells; format: cell-based
# [5] = tested on: HBV; settings: cited from earlier work
# [6] = tested on: HIV; settings: relative to cells not exposed; cited from earlier work
# [7] = tested on: HBV M protein; format: cell-based; settings: for secretion of the M protein: indicated concentrations, three days, FIG. 4
# Procedure: Hep G2 cells were transfected with an M only expression vector and the next day the cells divided equally into 6 well trays. Compound was added one day latter at the indicated concentrations and the media changed every two days. The presence of sub-viral particles in the medium was detected via the Abbott Diagnostics Auszyme Monoclonal Diagnostic Kit as per manufacture's directions. For Graph: Y-axis is the OD at 492. X-axis indicates the compounds or cells used in the assay.
# Hep G2 cells transfected with the HBV M expression vector were treated with the glucosidase inhibitor NB-DNJ (4.5 mM and 6 days latter the amount of M protein associated with the culture medium (secreted) and the cells (retained) determined by ELISA. See text for more details. For graph: x-axis, Drug treatment and location of protein; for y-axis, % of HBV M protein as compared to untreated
# Hep G2 cells were transfected with the M only expression vector and seeded as daughter flasks into 6 well trays. Following 4 days of treatment of glucosidase inhibitor (NB-DNJ (4.5 mM)), drug was either removed (in samples labels as —R) or left on as a control. Day 0 is the time in which drug was removed. […] Day 3 and Day 5 are days after drug removal. For Graph: Y-axis is the OD at 492. X-axis indicates the compounds or cells used in the assay. UN=untreated sample; Un-R is the untreated rebound sample; NB=N-butyl-DNJ; NB-R=N-butyl-DNJ rebound sample.
# HBV M protein secretion is sensitive to glucosidase inhibition. Our previous work has determined that the secretion of HBV sub-viral particles containing the M protein was sensitive to glucosidase inhibition. (Mehta et al., 1997). That is, when Hep G2 2.215 cells were treated with the glucosidase inhibitor NB-DNJ, purified sub-viral particles appeared to lack the M protein. However, it was unclear if this was the result of the M protein's sensitivity to glucosidase inhibition or required some other viral factor. To test this hypothesis, an expression vector (pCMV-MS^−X) directs the expression of HBV M, but no other viral protein, was created. This “M only” expression vector was then used to determine if the M protein itself, in the absence of other viral functions, was sensitive to glucosidase inhibition. In addition, an expression vector, unable to express “M”, but able to express “S” was made on the same plasmid backbone as the “M” only vector, as was used as a control (pCMV-M^−SX). For these studies three imino sugars were used: N-butyl-DNJ, N-nonyl-DNJ and N-nonyl-DGJ. N-butyl-DNJ is our standard glucosidase inhibitor and has been used by several labs for over 10 years (Carlson et al.,1995, Block et al., 1994). […] Briefly, Hep G2 cells were transfected with the expression vectors pCMV HBV MS^−X and pCMV HBV M^−SX and subsequently seeded into fresh 6 well trays. The transfected cells were treated with the indicated concentrations of NB-DNJ, NN-DNJ or NN-DGJ (as a negative control) and three days latter the media analyzed for the presence of the HBV M or HBV S protein as described in Mehta et al, 2001. […] Fore example, concentrations of NN-DNJ which have no impact upon glycan inhibition, as determined by glycan analysis or α-1-acid-glycoprotein secretion, had no effect upon HBV M protein secretion (data not shown). In contrast to the effect of the glucosidase inhibitors on M protein secretion, the secretion of the HBV S protein was insensitive to either NB-DNJ or NN-DNJ providing further proof that the S protein is insensitive to glucosidase inhibition (data not shown; Block et al., 1994, Mehta et al., 1997, Werr & Prange, 1998). To determine if the secretion of the HBV M protein was prevented by another non-glucosidase mechanism, other compounds with the same alkyl side chain (tail) but altered imino sugar head groups, were synthesized. For example, NN-DGJ has the same chain length as NN-DNJ but is not a glucosidase inhibitor. […]
# [8] = tested on: bovine viral diarrhea virus (BVDV); test: BVDV in mammalian cells in tissue culture; format: cell-based
# Excerpt: We have discovered that cytotoxicity resulting from exposure of mammalian cells in tissue culture to bovine viral diarrhea virus (BVDV) is prevented by addition of a glucosidase inhibitor to the tissue culture medium. The glucosidase inhibitors useful according to the present invention include, but are not limited to a derivative of 1,5-dideoxy-1,5-imino-D-glucitol (DNJ), in particular, N-butyl-DNJ (NBDNJ). […] Because BVDV is an accepted tissue culture model of hepatitis C virus (HCV) (Henzler, H.-J. and K. Kaiser (1998) Nature Biotech 16:1077-1078), the compositions and methods described herein for inhibiting morphogenesis of BVDV are also useful for inhibiting morphogenesis of HCV.
# The substituents on the basic 1,5-dideoxy-1,5-imino-D-glucitol can influence the potency of the compound as an antiviral agent and additionally can preferentially target the molecule to one organ rather than another. […] Methods for comparing the potencies of various substituted compounds are provided in Example 1. […] Methods for determining preferential targeting properties of variously substituted DNJs is provided in Example 8 and FIG. 8 in U.S. Pat. No. 6,465,487.
# [9] = tested on: HBV; settings: chronic HBV patients; cited from earlier work
# [10] = tested on: HCV; settings: cited from earlier work
compound,measurement,setting,value
"OC[C@H]1NC[C@H](O)[C@@H](O)[C@@H]1O [DNJ, 1,5-dideoxy-1,5-imino-D-glucitol]",secretion of enveloped virus versus un-enveloped virus,[1],inhibits the secretion of enveloped virus more effectively than un-enveloped virus
"Cc1cn([C@H]2O[C@@H](CO)[C@H](O)[C@H]2F)c(=O)[nH]c1=O [L-FMAU, 1-(2-Fluro-5-Methy-B-L-Arabinofuranosyl)-Uracil]",decrease in the amount of serum WHsAg,[2]; long term treatment,10 fold
same,immune responses developed,"[2]; woodchucks, drug alone",limited cellular and humoral immune responses
"CCCCN1C[C@H](O)[C@@H](O)[C@H](O)[C@H]1CO [NB-DNJ, N-butyl-1,5-dideoxy-1,5-imino-D-glucitol]",potency in inhibiting the intracellular production of BVDV virus,[3],less potent
same,time to return of glucosidase enzyme function after removal of inhibitor,"[4]; not shown or Tan et al, 1994",less than 3 hours
same,secretion of HBV viral particles,[5]; Hep G2.2.15 cells,prevents the secretion of HBV viral particles
same,egress of subviral particles,[5]; stable transfected HepG2 cells,does not prevent egress
same,egress of the mature HBV virion,[5]; stable transfected HepG2 cells,prevents egress
same,infectivity of virus particles released from HIV-infected cells,[6],greatly reduced
same,amount of M protein in the culture medium after 4 days of treatment,"[7]; 4.5 mM, 4 days, FIG. 6",substantial decrease
same,HBV M protein associated with the cells (retained),"[7]; 4.5 mM, 6 days, ELISA, FIG. 5",retention of the HBV M protein
same,HBV M protein associated with the culture medium (secreted),"[7]; 4.5 mM, 6 days, ELISA, FIG. 5",reduction in the amount of HBV M protein associated with the culture medium
same,level of M protein in the culture medium after compound removal,"[7]; after 4 days treatment, drug removed, FIG. 6",remained depressed until the 5th day
same,secretion of the M protein,[7],prevented the secretion of the M protein
same,M protein secretion at lower concentrations,"[7]; lower concentrations, which inhibit lower levels of glucosidase",able to inhibit M protein secretion
same,effect on cell number or viability,"[7]; sustained reduction experiment, data not shown",not due to an effect on cell number or viability
same,toxicity toward host cells,[8]; conditions inhibiting BVDV-induced cytotoxicity,"little, if any, toxicity"
same,BVDV-induced cytotoxicity,[8]; tissue culture,inhibition of BVDV-induced cytotoxicity was achieved
"CCCCCCCCCN1C[C@H](O)[C@@H](O)[C@@H](O)[C@H]1CO [NN-DGJ, reference compound]",glucosidase inhibition,[4]; negative control,does not inhibit glucosidase
same,secretion of the M protein,[7],"but not NN-DGJ which does not inhibit glucosidase, reduces the amount of M detected in the medium"
Alpha-interferon,treated patients achieving certain serological milestones,[9],7-40%
same,patients with long-term improvement,[10],5%
